Reference: article PMC9481151, “Discovery of new symmetrical and asymmetrical nitrile-containing 1,4-dihydropyridine derivatives as dual kinases and P-glycoprotein inhibitors: synthesis, in vitro assays, and in silico studies” (Journal of Enzyme Inhibition and Medicinal Chemistry, 2022)

Tests used:
786-0 = experiment: NCI single dose (10 µM) SRB screen; assay type: cell-based, human; settings: renal cancer, 48 h
RXF 393 = experiment: NCI single dose (10 µM) SRB screen; assay type: cell-based, human; settings: renal cancer, 48 h
BT-549 = experiment: NCI single dose (10 µM) SRB screen; assay type: cell-based, human; settings: breast cancer, 48 h
OVCAR-3 = experiment: NCI single dose (10 µM) SRB screen; assay type: cell-based, human; settings: ovarian cancer, 48 h
Candida albicans = experiment: Agar well diffusion method; settings: relative to clotrimazole
HOP-92 = experiment: NCI single dose (10 µM) SRB screen; assay type: cell-based, human; settings: non-small cell lung cancer, 48 h
HT29 = experiment: NCI single dose (10 µM) SRB screen; assay type: cell-based, human; settings: colon cancer, 48 h
COLO 205 = experiment: NCI single dose (10 µM) SRB screen; assay type: cell-based, human; settings: colon cancer, 48 h
SF-295 = experiment: NCI single dose (10 µM) SRB screen; assay type: cell-based, human; settings: CNS cancer, 48 h
OVCAR-8 = experiment: NCI single dose (10 µM) SRB screen; assay type: cell-based, human; settings: ovarian cancer, 48 h
A498 = experiment: NCI single dose (10 µM) SRB screen; assay type: cell-based, human; settings: renal cancer, 48 h
EKVX = experiment: NCI single dose (10 µM) SRB screen; assay type: cell-based, human; settings: non-small cell lung cancer, 48 h
SF-539 = experiment: NCI single dose (10 µM) SRB screen; assay type: cell-based, human; settings: CNS cancer, 48 h
SW-620 = experiment: NCI single dose (10 µM) SRB screen; assay type: cell-based, human; settings: colon cancer, 48 h
NCI 60 cancer cell lines = experiment: NCI single dose (10 µM) SRB screen, mean over panel; assay type: cell-based, human; settings: mean over 60 cell lines, 48 h
NCI-H460 = experiment: NCI single dose (10 µM) SRB screen; assay type: cell-based, human; settings: non-small cell lung cancer, 48 h
HCT-15 = experiment: NCI single dose (10 µM) SRB screen; assay type: cell-based, human; settings: colon cancer, 48 h
OVCAR-4 = experiment: NCI single dose (10 µM) SRB screen; assay type: cell-based, human; settings: ovarian cancer, 48 h
Pseudomonas aeruginosa = experiment: Agar well diffusion method; settings: relative to ciprofloxacin
HCT-116 = experiment: NCI single dose (10 µM) SRB screen; assay type: cell-based, human; settings: colon cancer, 48 h
NCI-H226 = experiment: NCI single dose (10 µM) SRB screen; assay type: cell-based, human; settings: non-small cell lung cancer, 48 h
OVCAR-5 = experiment: NCI single dose (10 µM) SRB screen; assay type: cell-based, human; settings: ovarian cancer, 48 h
IGROV1 = experiment: NCI single dose (10 µM) SRB screen; assay type: cell-based, human; settings: ovarian cancer, 48 h
MALME-3M = experiment: NCI single dose (10 µM) SRB screen; assay type: cell-based, human; settings: melanoma, 48 h
MDA-MB-468 = experiment: NCI single dose (10 µM) SRB screen; assay type: cell-based, human; settings: breast cancer, 48 h
KM12 = experiment: NCI single dose (10 µM) SRB screen; assay type: cell-based, human; settings: colon cancer, 48 h
SK-OV-3 = experiment: NCI single dose (10 µM) SRB screen; assay type: cell-based, human; settings: ovarian cancer, 48 h
MCF7 = experiment: NCI single dose (10 µM) SRB screen; assay type: cell-based, human; settings: breast cancer, 48 h
CCRF-CEM = experiment: NCI single dose (10 µM) SRB screen; assay type: cell-based, human; settings: leukaemia, 48 h
UACC-257 = experiment: NCI single dose (10 µM) SRB screen; assay type: cell-based, human; settings: melanoma, 48 h
U251 = experiment: NCI single dose (10 µM) SRB screen; assay type: cell-based, human; settings: CNS cancer, 48 h
MDA-MB-231 = experiment: NCI single dose (10 µM) SRB screen; assay type: cell-based, human; settings: breast cancer, 48 h
MDA-MB-435 = experiment: NCI single dose (10 µM) SRB screen; assay type: cell-based, human; settings: melanoma, 48 h
A549/ATCC = experiment: NCI single dose (10 µM) SRB screen; assay type: cell-based, human; settings: non-small cell lung cancer, 48 h
LOX IMVI = experiment: NCI single dose (10 µM) SRB screen; assay type: cell-based, human; settings: melanoma, 48 h
Aspergillus flavus = experiment: Agar well diffusion method
CAKI-1 = experiment: NCI single dose (10 µM) SRB screen; assay type: cell-based, human; settings: renal cancer, 48 h
SNB-75 = experiment: NCI single dose (10 µM) SRB screen; assay type: cell-based, human; settings: CNS cancer, 48 h
Staphylococcus aureus = experiment: Agar well diffusion method; settings: relative to ciprofloxacin
HOP-62 = experiment: NCI single dose (10 µM) SRB screen; assay type: cell-based, human; settings: non-small cell lung cancer, 48 h
SK-MEL-2 = experiment: NCI single dose (10 µM) SRB screen; assay type: cell-based, human; settings: melanoma, 48 h
SF-268 = experiment: NCI single dose (10 µM) SRB screen; assay type: cell-based, human; settings: CNS cancer, 48 h
SK-MEL-28 = experiment: NCI single dose (10 µM) SRB screen; assay type: cell-based, human; settings: melanoma, 48 h
HL-60(TB) = experiment: NCI single dose (10 µM) SRB screen; assay type: cell-based, human; settings: leukaemia, 48 h
T-47D = experiment: NCI single dose (10 µM) SRB screen; assay type: cell-based, human; settings: breast cancer, 48 h
NCI-H522 = experiment: NCI single dose (10 µM) SRB screen; assay type: cell-based, human; settings: non-small cell lung cancer, 48 h
NCI-H23 = experiment: NCI single dose (10 µM) SRB screen; assay type: cell-based, human; settings: non-small cell lung cancer, 48 h
MOLT-4 = experiment: NCI single dose (10 µM) SRB screen; assay type: cell-based, human; settings: leukaemia, 48 h
SK-MEL-5 = experiment: NCI single dose (10 µM) SRB screen; assay type: cell-based, human; settings: melanoma, 48 h
UO-31 = experiment: NCI single dose (10 µM) SRB screen; assay type: cell-based, human; settings: renal cancer, 48 h
SR = experiment: NCI single dose (10 µM) SRB screen; assay type: cell-based, human; settings: leukaemia, 48 h
M14 = experiment: NCI single dose (10 µM) SRB screen; assay type: cell-based, human; settings: melanoma, 48 h
RPMI-8226 = experiment: NCI single dose (10 µM) SRB screen; assay type: cell-based, human; settings: leukaemia, 48 h
SNB-19 = experiment: NCI single dose (10 µM) SRB screen; assay type: cell-based, human; settings: CNS cancer, 48 h
PC-3 = experiment: NCI single dose (10 µM) SRB screen; assay type: cell-based, human; settings: prostate cancer, 48 h
HCC-2998 = experiment: NCI single dose (10 µM) SRB screen; assay type: cell-based, human; settings: colon cancer, 48 h
DU-145 = experiment: NCI single dose (10 µM) SRB screen; assay type: cell-based, human; settings: prostate cancer, 48 h
NCI/ADR-RES = experiment: NCI single dose (10 µM) SRB screen; assay type: cell-based, human; settings: ovarian cancer, 48 h
ACHN = experiment: NCI single dose (10 µM) SRB screen; assay type: cell-based, human; settings: renal cancer, 48 h
SN12C = experiment: NCI single dose (10 µM) SRB screen; assay type: cell-based, human; settings: renal cancer, 48 h
HS578T = experiment: NCI single dose (10 µM) SRB screen; assay type: cell-based, human; settings: breast cancer, 48 h
K-562 = experiment: NCI single dose (10 µM) SRB screen; assay type: cell-based, human; settings: leukaemia, 48 h
TK-10 = experiment: NCI single dose (10 µM) SRB screen; assay type: cell-based, human; settings: renal cancer, 48 h
NCI-H322M = experiment: NCI single dose (10 µM) SRB screen; assay type: cell-based; settings: non-small cell lung cancer, 48 h
Escherichia coli = experiment: Agar well diffusion method; settings: relative to ciprofloxacin
Bacillus subtilis = experiment: Agar well diffusion method; settings: relative to ciprofloxacin
UACC-62 = experiment: NCI single dose (10 µM) SRB screen; assay type: cell-based, human; settings: melanoma, 48 h

COC(=O)C1=C(C)NC(C)=C(C(=O)OC(C)(C)C)C1c1cccc(C#N)c1 (racemic) [Compound 2c, (±)-3-Tert-butyl 5-Methyl 4-(3-cyanophenyl)-2,6-dimethyl-1,4-dihydropyridine-3,5-dicarboxylate]
GI% 786-0 (786-0): – (Only GI% ≥ 10 are shown) | GI% RXF 393 (RXF 393): – (Only GI% ≥ 10 are shown) | GI% BT-549 (BT-549): – (Only GI% ≥ 10 are shown) | GI% OVCAR-3 (OVCAR-3): – (Only GI% ≥ 10 are shown) | % activity index, C. albicans (Candida albicans): – (Values below 25 are of limited value and not shown as they refer either to inactive or non-diffusing compounds) | GI% HOP-92 (HOP-92): 10% | GI% HT29 (HT29): – (Only GI% ≥ 10 are shown) | GI% COLO 205 (COLO 205): – (Only GI% ≥ 10 are shown) | GI% SF-295 (SF-295): – (Only GI% ≥ 10 are shown) | GI% OVCAR-8 (OVCAR-8): – (Only GI% ≥ 10 are shown) | GI% A498 (A498): – (Only GI% ≥ 10 are shown) | melting point: 157 to 159 °C | GI% EKVX (EKVX): – (Only GI% ≥ 10 are shown) | GI% SF-539 (SF-539): – (Only GI% ≥ 10 are shown) | GI% SW-620 (SW-620): – (Only GI% ≥ 10 are shown) | Mean GI% (NCI 60 cancer cell lines): 0% | GI% NCI-H460 (NCI-H460): – (Only GI% ≥ 10 are shown) | GI% HCT-15 (HCT-15): – (Only GI% ≥ 10 are shown) | GI% OVCAR-4 (OVCAR-4): – (Only GI% ≥ 10 are shown) | % activity index, P. aeruginosa (Pseudomonas aeruginosa): – (Values below 25 are of limited value and not shown as they refer either to inactive or non-diffusing compounds) | GI% HCT-116 (HCT-116): – (Only GI% ≥ 10 are shown) | GI% NCI-H226 (NCI-H226): – (Only GI% ≥ 10 are shown) | GI% OVCAR-5 (OVCAR-5): – (Only GI% ≥ 10 are shown) | GI% IGROV1 (IGROV1): – (Only GI% ≥ 10 are shown) | GI% MALME-3M (MALME-3M): – (Only GI% ≥ 10 are shown) | GI% MDA-MB-468 (MDA-MB-468): – (Only GI% ≥ 10 are shown) | GI% KM12 (KM12): – (Only GI% ≥ 10 are shown) | GI% SK-OV-3 (SK-OV-3): – (Only GI% ≥ 10 are shown) | GI% MCF7 (MCF7): 13% | GI% CCRF-CEM (CCRF-CEM): – (Only GI% ≥ 10 are shown) | GI% UACC-257 (UACC-257): – (Only GI% ≥ 10 are shown) | GI% U251 (U251): – (Only GI% ≥ 10 are shown) | GI% MDA-MB-231 (MDA-MB-231): – (Only GI% ≥ 10 are shown) | GI% MDA-MB-435 (MDA-MB-435): – (Only GI% ≥ 10 are shown) | GI% A549/ATCC (A549/ATCC): – (Only GI% ≥ 10 are shown) | GI% LOX IMVI (LOX IMVI): – (Only GI% ≥ 10 are shown) | zone of inhibition at 1000 µg/mL (Aspergillus flavus; Aspergillus flavus, 24 h, read-out: Diameter of inhibition zone, A. flavus): 7 mm | % activity index, A. flavus (Aspergillus flavus; relative to clotrimazole): 28% | GI% CAKI-1 (CAKI-1): 15% | GI% SNB-75 (SNB-75): 27% | % activity index, S. aureus (Staphylococcus aureus): – (Values below 25 are of limited value and not shown as they refer either to inactive or non-diffusing compounds) | GI% HOP-62 (HOP-62): – (Only GI% ≥ 10 are shown) | GI% SK-MEL-2 (SK-MEL-2): – (Only GI% ≥ 10 are shown) | GI% SF-268 (SF-268): – (Only GI% ≥ 10 are shown) | GI% SK-MEL-28 (SK-MEL-28): – (Only GI% ≥ 10 are shown) | GI% HL-60(TB) (HL-60(TB)): – (Only GI% ≥ 10 are shown) | GI% T-47D (T-47D): 12% | GI% NCI-H522 (NCI-H522): – (Only GI% ≥ 10 are shown) | GI% NCI-H23 (NCI-H23): – (Only GI% ≥ 10 are shown) | GI% MOLT-4 (MOLT-4): – (Only GI% ≥ 10 are shown) | GI% SK-MEL-5 (SK-MEL-5): – (Only GI% ≥ 10 are shown) | GI% UO-31 (UO-31): – (Only GI% ≥ 10 are shown) | GI% SR (SR): 15% | GI% M14 (M14): – (Only GI% ≥ 10 are shown) | GI% RPMI-8226 (RPMI-8226): 12% | GI% SNB-19 (SNB-19): – (Only GI% ≥ 10 are shown) | GI% PC-3 (PC-3): 18% | GI% HCC-2998 (HCC-2998): – (Only GI% ≥ 10 are shown) | GI% DU-145 (DU-145): – (Only GI% ≥ 10 are shown) | GI% NCI/ADR-RES (NCI/ADR-RES): – (Only GI% ≥ 10 are shown) | GI% ACHN (ACHN): – (Only GI% ≥ 10 are shown) | GI% SN12C (SN12C): – (Only GI% ≥ 10 are shown) | GI% HS578T (HS578T): – (Only GI% ≥ 10 are shown) | GI% K-562 (K-562): – (Only GI% ≥ 10 are shown) | GI% TK-10 (TK-10): – (Only GI% ≥ 10 are shown) | GI% NCI-H322M (NCI-H322M): – (Only GI% ≥ 10 are shown) | % activity index, E. coli (Escherichia coli): – (Values below 25 are of limited value and not shown as they refer either to inactive or non-diffusing compounds) | % activity index, B. subtilis (Bacillus subtilis): – (Values below 25 are of limited value and not shown as they refer either to inactive or non-diffusing compounds) | GI% UACC-62 (UACC-62): – (Only GI% ≥ 10 are shown)
